Data set [1] relates to subject with type 1 diabetes. Kind of data set: Pilot open-label observational study with continuous glucose monitoring, treatment three times per day before meals (Example 1). Format: in vivo, human. The conditions noted are these: 7.5 g tagatose prior to meals without allulose or ginger. The protocol:
Example 1. A pilot, open-label observational study was conducted on a subject with type 1 diabetes. The subject used a Dexcom® continuous glucose monitoring system which recorded blood sugar levels every five minutes. The subject first completed an extensive control period for roughly two months to obtain background blood sugar levels.
Subsequently, the subject was administered numerous treatment protocols separated by washout periods of at least 7 days (typically two weeks). […] The subject completed treatments with the following active ingredients: (i) Experimental Treatment 1: tagatose plus allulose plus ginger, (ii) Experimental Treatment 2: tagatose plus ginger, (iii) Experimental Treatment 3: allulose plus ginger, and (iv) Experimental Treatment 4: a second treatment course comprising tagatose plus allulose plus ginger. […]
Blood sugar levels were recorded every five minutes using the continuous glucose monitoring system. Primary endpoints were (i) average blood sugar level over the course of treatment, (ii) number of five minute periods with blood sugar level over 180 mg/dL (“time with high blood sugar”) and (iii) “hyperglycemia index”, calculated as the fraction of time with blood sugar level over 250 mg/dL multiplied by the average magnitude of the these hyperglycemic periods (defined as the difference in mg/dL between the recorded blood sugar level and 250). […]

In the next data set the test system is subjects. Description: Experimental treatment with tagatose alone, gastrointestinal side effects. Format: in vivo, human. To be noted: no co-administration of allulose or ginger; treatment stopped after a couple of days. The text has this:
Both tagatose and allulose can give rise to significant gastrointestinal side effects (e.g., bloating, flatulence, abdominal pain, diarrhea). In our personal experience and anecdotally, the GI side effects are more significant for tagatose than allulose.

As to `O=C(CO)[C@@H](O)[C@@H](O)[C@H](O)CO` [tagatose], the “reason treatment was not completed” value in data set [1] is given as “GI discomfort”. The “GI side effects of tagatose alone” value in the data set with subjects was “unpleasant GI side effects reported by a majority of subjects”.

The values are drawn from patent US20250031744A1, “Methods and Compositions for Managing Blood Glucose Levels Using Rare Sugars” (DiaVita Therapeutics LLC, priority 2023, published 2025).
